Where two headings read alike, the source gives them in different places.
Assays:
CDK9/cyclin T1 = biological target: T1, CDK9/cyclin T1 (Homo sapiens, UniProt P50750); assay: ADAPTA kinase assay (TR-FRET), CDK9 inhibition; format: biochemical; settings: for IC50: CDK9 inhibitory activity
T1 construct: purchased Thermo Fisher Scientific, Madison, WI, USA
Method: The inhibitory activity of the compounds identified by the VS was evaluated against CDK9/cyclin T1 using the fluorescence-based ADAPTA kinase assay (Thermo Fisher Scientific, Madison, WI, USA). The assay quantifies ADP generated during the kinase reaction through a competitive immunoassay employing a TR-FRET detection system. In the presence of an inhibitor, ADP formation by the kinase is reduced, leading to preservation of the antibody–tracer complex and a corresponding increase in the TR-FRET signal. Inhibitory potency was expressed as IC50 values, determined from logistic dose–response curves with 10 concentration points, each representing the average of two independent experiments.

MCF-7 cells = assay: Cell viability assay (SRB), MCF-7; format: cell-based; settings: 72 h; for cell viability (antiproliferative effect): MCF-7, single agent, SRB
Method: (§1) HeLa, MCF-7, and MDA-MB-231 cells were seeded in triplicate into 96-well plates at densities of 1500, 3500, and 3000 cells per well, respectively, and allowed to adhere for 24 h. After 72 h of incubation, cells were fixed with 10% (v/v) trichloroacetic acid (TCA) and subsequently stained with 0.4% (w/v) sulforhodamine B (SRB) dissolved in 1% (v/v) acetic acid. Cell viability was quantified and expressed as a percentage relative to untreated control cells, which were normalized to 100%. Data represent the mean ± standard deviation (SD) from three independent experiments (n = 3). Statistical significance was determined using one-way ANOVA or Student’s t-test, followed by appropriate multiple-comparison post hoc tests to evaluate differences between experimental groups.

HeLa cells = assay: Cell viability assay (SRB), HeLa; format: cell-based; settings: 72 h; for cell viability (antiproliferative effect): single agent, SRB
Method: as §1

MDA-MB-231 cells = assay: Cell viability assay (SRB), MDA-MB-231; format: cell-based; settings: 72 h; for cell viability (antiproliferative effect): MDA-MB-231, single agent, SRB
Method: as §1

[1] = system: γH2AX Ser139 foci in HeLa cells; assay: Immunofluorescence analysis of γ-H2AX foci; format: cell-based; settings: 1 h pretreatment with compound 1, then 2 h CPT, combination vs CPT alone
Method: (§2) HeLa cells were fixed in 4% paraformaldehyde and subsequently permeabilized with 0.2% Triton X-100. Blocking was performed with 1% bovine serum albumin (BSA) for 10 min at room temperature. Cells were then incubated for 1 h at RT with primary antibodies targeting: γH2AX Ser139 (1:200, ab2893, Abcam, Cambridge, UK) or pRPA32 S4/8 (1:200, A300-245A, Bethyl Laboratories, Montgomery, TX, USA). Corresponding secondary antibody conjugated with AlexaFluor 647 donkey anti-rabbit IgG (H + L) was applied. Samples were mounted using ProLong™ Gold Antifade Mountant with DAPI (Thermo Fisher Scientific). High-resolution immunofluorescence imaging was performed on a Zeiss LSM 900 Airyscan2 confocal microscope equipped with a Plan-Apochromat 63×/1.4 NA oil immersion objective. Image acquisition and processing utilized Zen 3.9 software Zeiss, Jena, Germany). Quantification of fluorescent foci per nucleus was conducted using Fiji (ImageJ) software, version 2.14.0/1.54f.
Figure S3. […] Thirty cells were evaluated per condition. Data are expressed as the mean ± standard deviation (SD) from three separate experiments. Statistical signiﬁcance was determined using Welch’s corrected Student’s t-test to account for potential variance diﬀerences between samples. **** p < 0.0001. […]

[2] = system: HeLa cells transfected with siCTR or siCDK9; assay: Cell viability in HeLa cells with siRNA-mediated CDK9 knockdown; format: cell-based; settings: 100 nM siCDK9 vs siCTR, 72 h treatment
Method: as §1
Consistently, when CDK9 is depleted, the overall impact of compound 1 is reduced.
Figure S2. HeLa cells were transfected with 100 nM of siCTR or siCDK9. After 24 hours of incubation, the cells were plated for the indicated treatment time points and incubated for an additional 24 hours, followed by treatment with the speciﬁed drug concentrations for another 72 hours. Results are presented as the mean ± SD from three independent experiments. *p< […], **p< 0.01, *** p < 0.001 and **** p < 0.0001.
(1 picture or pasted object on this page, not shown here)

[3] = system: pRPA32 S4/8 in HeLa cells; assay: Immunofluorescence analysis of pRPA32 S4/8 (HR activity); format: cell-based; settings: 1 h pretreatment with compound 1 or DMSO, then 2 h CPT
Method: as §2
Figure S4. A) HeLa cells were pre-treated with compound 1 (reported as Cmp 1) or DMSO for one hour, followed by incubation with CPT. Thirty cells per condition were analyzed from three independent experiments, with results reported as the standard deviation (SD). Statistical analysis was performed using Welch’s corrected Student’s t-test to account for heteroscedasticity in the data. […]

[4] = 10 concentration points, average of two independent experiments, read-out: Experimental IC50

T1 sequence (P50750 whole entry): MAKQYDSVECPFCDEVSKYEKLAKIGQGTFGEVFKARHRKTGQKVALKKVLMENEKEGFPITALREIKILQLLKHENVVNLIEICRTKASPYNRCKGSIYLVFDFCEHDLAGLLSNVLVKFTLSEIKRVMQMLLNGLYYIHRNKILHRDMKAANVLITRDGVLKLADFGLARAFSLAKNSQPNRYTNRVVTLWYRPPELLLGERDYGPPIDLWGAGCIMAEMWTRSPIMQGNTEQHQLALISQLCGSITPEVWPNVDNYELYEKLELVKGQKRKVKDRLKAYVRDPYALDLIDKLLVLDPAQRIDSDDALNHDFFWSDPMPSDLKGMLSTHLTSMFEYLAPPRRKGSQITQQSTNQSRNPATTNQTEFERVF
T1 sequence (O60563 whole entry partner): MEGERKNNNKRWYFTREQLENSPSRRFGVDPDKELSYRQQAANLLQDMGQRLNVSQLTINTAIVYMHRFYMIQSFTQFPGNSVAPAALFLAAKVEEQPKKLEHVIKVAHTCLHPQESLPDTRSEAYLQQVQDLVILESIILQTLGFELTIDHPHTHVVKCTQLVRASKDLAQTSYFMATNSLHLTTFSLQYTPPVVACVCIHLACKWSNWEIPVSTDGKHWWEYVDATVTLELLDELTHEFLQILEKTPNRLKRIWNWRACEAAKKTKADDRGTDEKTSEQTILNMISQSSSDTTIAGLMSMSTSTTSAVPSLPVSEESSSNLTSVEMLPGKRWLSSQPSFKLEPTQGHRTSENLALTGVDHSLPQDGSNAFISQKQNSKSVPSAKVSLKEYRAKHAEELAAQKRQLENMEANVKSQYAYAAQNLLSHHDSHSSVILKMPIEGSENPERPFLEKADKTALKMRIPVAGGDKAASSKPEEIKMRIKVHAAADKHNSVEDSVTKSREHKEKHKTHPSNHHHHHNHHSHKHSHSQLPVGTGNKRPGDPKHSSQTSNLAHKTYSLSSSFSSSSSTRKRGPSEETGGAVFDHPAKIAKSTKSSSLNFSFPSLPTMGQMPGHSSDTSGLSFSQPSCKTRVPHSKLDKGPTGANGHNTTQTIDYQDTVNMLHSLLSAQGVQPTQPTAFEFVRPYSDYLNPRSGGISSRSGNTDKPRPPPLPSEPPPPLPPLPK

In the case of COc1ccc(OC)c(-c2cc(C(=O)NCC3CCN(c4ncccn4)CC3)n(C)n2)c1 [Compound 11], the IC50 (CDK9/cyclin T1; [4]) is reported as greater than 133 µM.
COC(=O)c1c(NC(=O)c2nn3c(C(F)(F)F)cc(-c4ccc(Br)cc4)nc3c2Cl)sc2c1CCCC2 [Compound 14] was tested, and the IC50 (CDK9/cyclin T1; [4]) was greater than 133 µM.
COc1cc2c(c3oc(=O)c(CCC(=O)NC4C=CS(=O)(=O)C4)c(C)c13)CCC(C)(C)O2 (centres unmarked) [Compound 5] showed an IC50 (CDK9/cyclin T1; [4]) of 107 µM.
In the case of Cc1nn(-c2ccc(F)cc2)c2nc(CCC(C)C)nc(N3CCN(C(=O)C4CC4c4ccccc4)CC3)c12 (centres unmarked) [Compound 4], the IC50 (CDK9/cyclin T1; [4]) is reported as 67.2 µM.
Molecule Cc1cc(NC2CCN(c3ncccc3F)C2)nc(C)n1 (centres unmarked) [Compound 10] has an IC50 (CDK9/cyclin T1; [4]) greater than 133 µM.
In the case of Cn1nc(C(=O)N2CCC(c3cc(O)nc(N4CCCC4)n3)C2)c2ccccc21 (centres unmarked) [Compound 9], the IC50 (CDK9/cyclin T1; [4]) is reported as greater than 133 µM.
CCOC(=O)c1sc(NC(=S)Nc2c(C)n(C)n(-c3ccccc3)c2=O)c(C(=O)OCC)c1C [Compound 2] was tested, and the “cell viability (antiproliferative effect)” value (MCF-7 cells) was “less effective at comparable concentrations”, the “cell viability (antiproliferative effect)” value (HeLa cells) was “less effective at comparable concentrations” and the IC50 (CDK9/cyclin T1; [4]) was 16.8 µM. The IC50 (CDK9/cyclin T1; read-out: IC50) was less than 50 µM and the “cell viability (antiproliferative effect)” value (MDA-MB-231 cells) was “less effective at comparable concentrations”.
With COc1ccccc1-c1ccnc(NC2CC3CCC(C2)N3C)n1 (centres unmarked) [Compound 1] the “DNA damage response (γ-H2AX foci)” value [1] was “stronger DNA damage response”, the “cell viability, combination with CPT” value (MCF-7 cells; MCF-7, CPT fixed 5 nM + compound 1 1.85–30 µM) was “additive interaction” and the “cell viability, combination with CPT” value (MCF-7 cells; MCF-7, compound 1 fixed 7.5 µM + CPT 1.25–20 nM) was “potentiated the cytotoxic activity of CPT”. For the same molecule, the “cell viability (antiproliferative effect)” value (MCF-7 cells) was “stronger antiproliferative activity”, the “cell viability, combination with CPT” value (HeLa cells; CPT fixed 5 nM + compound 1 1.85–30 µM) was “additive interaction” and the “cell viability, combination with CPT” value (HeLa cells; compound 1 fixed 7.5 µM + CPT 1.25–20 nM) was “potentiated the cytotoxic activity of CPT”. The “cell viability (antiproliferative effect)” value (HeLa cells) was “stronger antiproliferative activity”, the IC50 (CDK9/cyclin T1; [4]) was 3.51 µM and the IC50 (CDK9/cyclin T1; read-out: IC50) was less than 50 µM. The “potency of compound 1 relative to compound 2” value (CDK9/cyclin T1; in vitro enzymatic assays) was “five-fold”, the “survival of CDK9-depleted cells vs control cells” value [2] was “higher survival” and the “pRPA32 S4/8 signal (HR activity)” value [3] was “no significant changes in pRPA32 signal”. The “cell viability, combination with CPT” value (MDA-MB-231 cells; MDA-MB-231, CPT fixed 5 nM + compound 1 1.85–30 µM) was “additive interaction”, the “cell viability, combination with CPT” value (MDA-MB-231 cells; MDA-MB-231, compound 1 fixed 7.5 µM + CPT 1.25–20 nM) was “potentiated the cytotoxic activity of CPT” and the “cell viability (antiproliferative effect)” value (MDA-MB-231 cells) was “stronger antiproliferative activity”.
With COc1ccc(F)cc1-c1cc(N2CCN(S(=O)(=O)Cc3ccccc3)CC2)ncn1 [Compound 3] the IC50 (CDK9/cyclin T1; [4]) was 28.6 µM and the IC50 (CDK9/cyclin T1; read-out: IC50) was less than 50 µM.
O=S(=O)(N1CCCC1)N1CCN(c2ncnc3scc(-c4ccc(F)cc4)c23)CC1 [Compound 6] gave an IC50 (CDK9/cyclin T1; [4]) of 133 µM.
With CC[C@@]1(O)C(=O)OCc2c1cc1n(c2=O)Cc2cc3ccccc3nc2-1 [CPT, Camptothecin, reference compound] the “cell viability (antiproliferative effect)” value (MCF-7 cells) was “detectable cytotoxic effect”, the “cell viability (antiproliferative effect)” value (HeLa cells) was “detectable cytotoxic effect” and the “cell viability (antiproliferative effect)” value (MDA-MB-231 cells) was “detectable cytotoxic effect”.
Work on Cc1cc(N2CCC3(NC(=O)c4cccc(C(C)C)n4)CCCC23)nc(CO)n1 (centres unmarked) [Compound 8] yielded an IC50 (CDK9/cyclin T1; [4]) greater than 133 µM.
Work on Nc1c2c(-c3ccccc3Cl)nc(N3CCCC3)nc2nn1-c1ccc(F)cc1 [Compound 12] yielded an IC50 (CDK9/cyclin T1; [4]) greater than 133 µM.
CCC(Sc1nc2sc(C(=O)N(C)C)c(C)c2c(=O)n1CCc1ccccc1)C(=O)NC1CCCCC1 (centres unmarked) [Compound 13] showed an IC50 (CDK9/cyclin T1; [4]) greater than 133 µM.

From PMC12839014, “Machine Learning-Based Virtual Screening for the Identification of Novel CDK-9 Inhibitors” (Biomolecules, 2025)
